Assay [1] deals with PARP2 (Homo sapiens (Human), UniProt Q9UGN5). Briefly: PARP2 enzyme activity test. The format is biochemical. How it is done: (§1) PARP2 and PARP7 chemical […] detection kits were both purchased from BPS Bioscience. The histone solution in the kit was diluted 5× with 1×PBS, and 25 μL of the diluted histone solution was added to a microwell plate and incubated overnight at 4° C. After the incubation, the plate was washed three times with PBST (0.05% Tween-20). 100 μL of the blocking solution was added to the microwell plate and incubated at 25° C. for 90 minutes. After the incubation, the plate was washed three times with PBST. 2.5 μL of compound 4 diluted in test buffer and 5 μL of substrate mixed solution were added to the microwell plate. 5 μL of the diluted PARP enzyme was added to the microwell plate, and the reaction system was incubated at 25° C. for 60 minutes.
PARP2, sequence (Q9UGN5 whole entry): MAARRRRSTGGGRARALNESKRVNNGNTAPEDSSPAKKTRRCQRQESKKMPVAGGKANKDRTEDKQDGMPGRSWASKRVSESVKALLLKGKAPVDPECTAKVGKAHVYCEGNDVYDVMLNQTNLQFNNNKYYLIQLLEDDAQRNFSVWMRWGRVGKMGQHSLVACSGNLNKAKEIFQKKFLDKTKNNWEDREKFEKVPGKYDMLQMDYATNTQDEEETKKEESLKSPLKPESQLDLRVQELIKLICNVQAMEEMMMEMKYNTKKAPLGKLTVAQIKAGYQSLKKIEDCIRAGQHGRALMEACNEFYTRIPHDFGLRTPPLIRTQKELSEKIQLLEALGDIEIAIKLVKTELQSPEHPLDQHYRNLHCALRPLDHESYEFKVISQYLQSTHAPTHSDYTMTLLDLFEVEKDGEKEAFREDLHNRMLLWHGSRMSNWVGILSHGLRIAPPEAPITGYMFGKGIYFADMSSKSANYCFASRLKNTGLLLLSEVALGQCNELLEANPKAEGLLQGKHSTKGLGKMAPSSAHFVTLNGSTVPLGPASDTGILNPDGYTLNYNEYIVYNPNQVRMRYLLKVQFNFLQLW
(§2) After the incubation, the plate was washed three times with PBST. Streptavidin-HRP was diluted 50× with a blocking solution, and 25 μL of the diluent was added to the microwell plate and incubated at 25° C. for 30 minutes. After the incubation, the plate was washed three times with PBST. ELISA ECL substrate A and substrate B were mixed at a ratio of 1:1 (v/v), 25 μL of the mixture was added to the microwell plate, and the chemiluminescence value was read. […]

Assay [2] addresses PARP7 (Homo sapiens (Human), UniProt Q7Z3E1). Briefly: PARP7 enzyme activity test. The class given is biochemical. How it is done:
as §1, §2

Assay [3] addresses PARP-1 enzyme (Homo sapiens (Human), UniProt P09874). Briefly: PARP-1 enzyme activity test. The class given is biochemical. As to the method: PARP-1 chemical […] detection kit was purchased from BPS Bioscience. The histone solution in the kit was diluted 5× with 1×PBS, and 25 μL of the diluted histone solution was added to a microwell plate and incubated overnight at 4° C. After the incubation, the plate was washed three times with PBST (0.05% Tween-20). 100 μL of the blocking solution was added to the microwell plate and incubated at 25° C. for 90 minutes. After the incubation, the plate was washed three times with PBST. 2.5 μL of compounds at different concentrations diluted in test buffer and 12.5 μL of substrate mixed solution (1.25 μL 10×PARP test buffer; 1.25 μL 10×PARP test mixed solution; 2.5 μL Activated DNA, 7.5 μL double-distilled water) were added to the microwell plate. The PARP-1 enzyme was diluted to 2 ng/μL, 10 μL of the diluent was added to the microwell plate, and the reaction system was incubated at 25° C. for 60 minutes.
After the incubation, the plate was washed three times with PBST. Streptavidin-HRP was diluted 50× with a blocking solution, and 25 μL of the diluent was added to the microwell plate and incubated at 25° C. for 30 minutes. After the incubation, the plate was washed three times with PBST. ELISA ECL substrate A and substrate B were mixed at a ratio of 1:1 (v/v), 50 μL of the mixture was added to the microwell plate, and the chemiluminescence value was read.
The inhibition rate was calculated according to formula 1, where RLUsample was the readout of the compound well, RLUmax was the readout of the solvent control well, and RLUmin was the readout of the control well without the PARP-1 enzyme. Curve fitting was performed by four parameters (log(inhibitor) vs. response—Variable slope) using GraphPad Prism software, and the IC50 value was calculated.

Assay [4] relates to MDA-MB-436 cells. Briefly: MDA-MB-436 cell activity test. The class given is cell-based. The following applies: Homo sapiens. As to the method: Breast tumor cells MDA-MB-436 were purchased from ATCC, the culture medium was Leibovitz's L-15+10% FBS, and the cells were cultured in a CO2-free incubator at 37° C. On day 1, the cells in the exponential growth phase were collected, and the cell suspension was adjusted to 4000 cells/135 μL with the culture medium. 135 μL of the cell suspension was added to each well of a 96-well cell culture plate and incubated overnight. On day 2, compounds at different concentrations were added, and the plate was placed in the incubator and incubated for 7 days. After the incubation was completed, according to operation instructions for a CellTiter-Glo kit (Promega, G7573), 75 μL of CTG solution, which was already pre-melted and equilibrated to room temperature, was added to each well, and the mixture was uniformly mixed for 2 min using a microplate shaker. The plate was placed at room temperature for 10 min, and then […] were measured using an Envision2104 plate reader (PerkinElmer). The inhibition rate was calculated using formula (1), where RLUcompound was the readout of the drug treated group, RLUcontrol was the average value of the vehicle control group, and RLUblank was the average value of the cell-free well. The IC50 value was calculated using GraphPad Prism software.

PARP7, sequence (Q7Z3E1 whole entry): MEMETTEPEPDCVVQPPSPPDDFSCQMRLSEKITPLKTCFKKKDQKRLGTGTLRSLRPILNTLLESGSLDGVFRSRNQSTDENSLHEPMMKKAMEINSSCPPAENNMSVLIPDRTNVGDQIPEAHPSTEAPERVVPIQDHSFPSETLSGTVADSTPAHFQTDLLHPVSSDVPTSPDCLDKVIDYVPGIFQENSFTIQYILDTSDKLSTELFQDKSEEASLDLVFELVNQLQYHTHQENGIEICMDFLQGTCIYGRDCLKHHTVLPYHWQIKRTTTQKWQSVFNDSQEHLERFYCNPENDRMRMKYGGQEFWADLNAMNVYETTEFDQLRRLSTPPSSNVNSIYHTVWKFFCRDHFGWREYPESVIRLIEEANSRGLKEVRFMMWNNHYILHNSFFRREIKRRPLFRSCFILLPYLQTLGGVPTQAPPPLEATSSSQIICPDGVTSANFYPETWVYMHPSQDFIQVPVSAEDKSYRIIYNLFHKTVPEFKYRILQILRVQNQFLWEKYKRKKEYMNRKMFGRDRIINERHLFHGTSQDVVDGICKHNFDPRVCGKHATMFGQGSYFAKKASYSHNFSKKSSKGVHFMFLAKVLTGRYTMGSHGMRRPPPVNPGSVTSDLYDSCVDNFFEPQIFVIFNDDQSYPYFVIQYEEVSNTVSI
PARP-1 enzyme, sequence (P09874 whole entry): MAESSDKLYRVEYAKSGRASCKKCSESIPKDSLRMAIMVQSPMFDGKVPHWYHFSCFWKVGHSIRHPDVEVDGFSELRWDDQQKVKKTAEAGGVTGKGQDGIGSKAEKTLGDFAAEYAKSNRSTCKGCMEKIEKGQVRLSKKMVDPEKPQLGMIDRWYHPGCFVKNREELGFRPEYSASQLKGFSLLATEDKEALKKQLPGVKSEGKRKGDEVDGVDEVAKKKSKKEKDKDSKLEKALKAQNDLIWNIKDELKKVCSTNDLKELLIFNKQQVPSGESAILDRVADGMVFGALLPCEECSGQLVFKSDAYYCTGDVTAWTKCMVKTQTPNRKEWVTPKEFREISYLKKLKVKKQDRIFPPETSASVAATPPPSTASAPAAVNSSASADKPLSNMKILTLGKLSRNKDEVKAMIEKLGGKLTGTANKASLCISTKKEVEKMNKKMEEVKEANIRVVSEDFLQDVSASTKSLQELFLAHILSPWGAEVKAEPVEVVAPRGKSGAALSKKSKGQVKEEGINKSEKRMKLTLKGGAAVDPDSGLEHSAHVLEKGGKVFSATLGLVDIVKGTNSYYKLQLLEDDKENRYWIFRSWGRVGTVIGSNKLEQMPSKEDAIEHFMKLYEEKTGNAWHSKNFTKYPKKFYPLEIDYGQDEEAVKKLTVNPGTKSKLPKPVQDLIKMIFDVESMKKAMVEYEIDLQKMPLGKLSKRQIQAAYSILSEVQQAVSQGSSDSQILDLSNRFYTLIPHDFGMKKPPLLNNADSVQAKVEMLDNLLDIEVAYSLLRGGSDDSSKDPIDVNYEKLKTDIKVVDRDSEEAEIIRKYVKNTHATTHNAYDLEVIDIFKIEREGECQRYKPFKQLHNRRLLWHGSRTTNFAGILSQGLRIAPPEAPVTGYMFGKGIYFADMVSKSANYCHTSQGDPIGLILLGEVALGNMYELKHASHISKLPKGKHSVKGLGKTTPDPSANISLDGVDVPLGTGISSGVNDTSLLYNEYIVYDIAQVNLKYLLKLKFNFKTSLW

`CCc1cc2ncc(CN3CC=C(c4ccc(C(=O)NC)nc4)CC3)cc2[nH]c1=O` [Compound 14, 1′-((7-ethyl-6-oxo-5,6-dihydro-1,5-naphthyridin-3-yl)methyl)-N-methyl-1′,2′,3′,6′-tetrahydro-[3,4′-bipyridine]-6-carboxamide]: the IC50 (in general, the point on the concentration scale where inhibition reaches its midpoint) in assay [1] is 31 nM; in assay [2] it was 40 nM; in assay [3], 0.59 nM; in assay [4] (MDA-MB-436, 168 h, 7 days incubation, CellTiter-Glo), 3.2 nM. The inhibition at 10 µM in assay [4] (MDA-MB-436 cells, 10 μM, read-out: Max inh. % 10 μM) came out at 89.1%.
